# Tested on: Arabidopsis thaliana seedlings
# Assay: Seed germination assay of transgenic Arabidopsis (Example 26)
# Type: in vivo
# Design: Visual Inhibition Ratings of Seedlings: key: 4: complete inhibition; 1: no inhibition
# Details: for #R number of resistant seedlings / #S number of sensitive seedlings / % R percent of seedlings which are resistant: 10015 5 ppb
# Procedure: T2 seed was harvested from selected putative transformants and sown on GM medium containing 50 mg/l kanamycin and that containing 5 ppb 10015. Plates were sealed with filter tape, cold treated for 2 or more days at 4° C., and then incubated for 10 to 20 days at 23° C. under constant illumination as described above. Seedlings were scored as resistant (green, true leaves develop) and sensitive (no true leaves develop). […] The percent of resistant seedlings is inversely proportional with the two selections. Kanamycin is a positive selection for those seedlings that carry the foreign DNA.
# Selected T2 seedlings that were kanamycin resistant were transplanted to soil and were grown to maturity at 21° C. daytime (14 hours) 18° C. nighttime (10 hours) at 65-80% relative humidity. T3 seed was collected, sterilized, and germinated on GM medium containing 50 mg/l kanamycin and that containing 5 ppb 10015. Plates were sealed with filter tape, cold treated for 2 or more days at 4° C., and then incubated for 10 to 20 days at 23° C. under constant illumination as described above. Two of the six plants produced seed that was 100% resistant to kanamycin and 100% sensitive to 10015; they are homozygous for the inserted DNA. The other four parents are heterozygous and show an inverse proportion of kanamycin and 10015 resistant seedlings. […] Therefore, seedlings expressing the P450SU1 gene can be negatively selected.
# Germination assays of homozygous seed on various concentrations of 10015 were performed to assay the relative sensitivity to 10015 produced by the three different promoters and between independent transformants. Seed was sterilized, sown on GM medium with 0, 0.5, 1, 2, 5, 10 and 20 ppb 10015, incubated, and scored as described above. In addition, seedlings are rated on a scale of one to three for the amount of growth.
# Over 500 seed that are homozygous for the P450SU1 coding region were sown on the same plates. The plates were sealed, cold-treated, and incubated as previously described. […] Wild type seedlings were unaffected by the dying transformed seedlings. In addition, when greater than 10,000 seed of a homozygous Cab-SU111 plant was sown on GM medium with 10 ppb 10015, then cold-treated and incubated as described above, eighteen seedlings were resistant to 10015 and were unaffected by neighboring seedlings.
structure (smiles),measurement,setting,value
COc1cc(OC)nc(NC(=O)NS(=O)(=O)c2cccc3c2S(=O)(=O)N(C(C)C)C3)n1 [compound 10015],Visual Inhibition Ratings of Seedlings,"12.1.1 Cab-SU111, 1 ppb 10015",1
same,Visual Inhibition Ratings of Seedlings,"12.1.1 Cab-SU111, 2 ppb 10015",1
same,Visual Inhibition Ratings of Seedlings,"12.1.1 Cab-SU111, 5 ppb 10015",2
same,Visual Inhibition Ratings of Seedlings,"12.1.1 Cab-SU111, 10 ppb 10015",4
same,Visual Inhibition Ratings of Seedlings,"12.1.1 Cab-SU111, 20 ppb 10015",4
same,Visual Inhibition Ratings of Seedlings,"12.16.2 Cab-SU111, 1 ppb 10015",1
same,Visual Inhibition Ratings of Seedlings,"12.16.2 Cab-SU111, 2 ppb 10015",1
same,Visual Inhibition Ratings of Seedlings,"12.16.2 Cab-SU111, 5 ppb 10015",1
same,Visual Inhibition Ratings of Seedlings,"12.16.2 Cab-SU111, 10 ppb 10015",1
same,Visual Inhibition Ratings of Seedlings,"12.16.2 Cab-SU111, 20 ppb 10015",1
same,Visual Inhibition Ratings of Seedlings,"12.20.5 Cab-SU111, 1 ppb 10015",1
same,Visual Inhibition Ratings of Seedlings,"12.20.5 Cab-SU111, 2 ppb 10015",2
same,Visual Inhibition Ratings of Seedlings,"12.20.5 Cab-SU111, 5 ppb 10015",3
same,Visual Inhibition Ratings of Seedlings,"12.20.5 Cab-SU111, 10 ppb 10015",4
same,Visual Inhibition Ratings of Seedlings,"12.20.5 Cab-SU111, 20 ppb 10015",4
same,Visual Inhibition Ratings of Seedlings,"13.3.1 SU18, 1 ppb 10015",1
same,Visual Inhibition Ratings of Seedlings,"13.3.1 SU18, 2 ppb 10015",1
same,Visual Inhibition Ratings of Seedlings,"13.3.1 SU18, 5 ppb 10015",2
same,Visual Inhibition Ratings of Seedlings,"13.3.1 SU18, 10 ppb 10015",4
same,Visual Inhibition Ratings of Seedlings,"13.3.1 SU18, 20 ppb 10015",4
same,Visual Inhibition Ratings of Seedlings,"13.4.6 SSU-SU111, 1 ppb 10015",1
same,Visual Inhibition Ratings of Seedlings,"13.4.6 SSU-SU111, 2 ppb 10015",1
same,Visual Inhibition Ratings of Seedlings,"13.4.6 SSU-SU111, 5 ppb 10015",3
same,Visual Inhibition Ratings of Seedlings,"13.4.6 SSU-SU111, 10 ppb 10015",4
same,Visual Inhibition Ratings of Seedlings,"13.4.6 SSU-SU111, 20 ppb 10015",4
same,Visual Inhibition Ratings of Seedlings,"17.1.10 SU18, 1 ppb 10015",1
same,Visual Inhibition Ratings of Seedlings,"17.1.10 SU18, 2 ppb 10015",1
same,Visual Inhibition Ratings of Seedlings,"17.1.10 SU18, 5 ppb 10015",3
same,Visual Inhibition Ratings of Seedlings,"17.1.10 SU18, 10 ppb 10015",4
same,Visual Inhibition Ratings of Seedlings,"17.1.10 SU18, 20 ppb 10015",4
same,Visual Inhibition Ratings of Seedlings,"17.17.3 SU18, 1 ppb 10015",1
same,Visual Inhibition Ratings of Seedlings,"17.17.3 SU18, 5 ppb 10015",1
same,Visual Inhibition Ratings of Seedlings,"17.17.3 SU18, 10 ppb 10015",2
same,Visual Inhibition Ratings of Seedlings,"17.17.3 SU18, 20 ppb 10015",4
same,Visual Inhibition Ratings of Seedlings,"17.74.4 SSU-SU111, 1 ppb 10015",1
same,Visual Inhibition Ratings of Seedlings,"17.74.4 SSU-SU111, 2 ppb 10015",1
same,Visual Inhibition Ratings of Seedlings,"17.74.4 SSU-SU111, 5 ppb 10015",2
same,Visual Inhibition Ratings of Seedlings,"17.74.4 SSU-SU111, 10 ppb 10015",3
same,Visual Inhibition Ratings of Seedlings,"17.74.4 SSU-SU111, 20 ppb 10015",3
same,Visual Inhibition Ratings of Seedlings,"17.92.3 SSU-SU111, 1 ppb 10015",1
same,Visual Inhibition Ratings of Seedlings,"17.92.3 SSU-SU111, 2 ppb 10015",1
same,Visual Inhibition Ratings of Seedlings,"17.92.3 SSU-SU111, 5 ppb 10015",1
same,Visual Inhibition Ratings of Seedlings,"17.92.3 SSU-SU111, 10 ppb 10015",1
same,Visual Inhibition Ratings of Seedlings,"17.92.3 SSU-SU111, 20 ppb 10015",1
same,#R number of resistant seedlings,"T2 seed ID 12-1, pCab-SU111",3
same,#S number of sensitive seedlings,"T2 seed ID 12-1, pCab-SU111",10
same,% R percent of seedlings which are resistant,"T2 seed ID 12-1, pCab-SU111",23%
same,#R number of resistant seedlings,"T2 seed ID 12-2, pCab-SU111",13
same,#S number of sensitive seedlings,"T2 seed ID 12-2, pCab-SU111",0
same,% R percent of seedlings which are resistant,"T2 seed ID 12-2, pCab-SU111",100%
same,#R number of resistant seedlings,"T2 seed ID 12-4, pCab-SU111",12
same,#S number of sensitive seedlings,"T2 seed ID 12-4, pCab-SU111",8
same,% R percent of seedlings which are resistant,"T2 seed ID 12-4, pCab-SU111",60%
same,#R number of resistant seedlings,"T2 seed ID 12-5, pCab-SU111",15
same,#S number of sensitive seedlings,"T2 seed ID 12-5, pCab-SU111",0
same,% R percent of seedlings which are resistant,"T2 seed ID 12-5, pCab-SU111",100%
same,#R number of resistant seedlings,"T2 seed ID 12-6, pCab-SU111",5
same,#S number of sensitive seedlings,"T2 seed ID 12-6, pCab-SU111",9
same,% R percent of seedlings which are resistant,"T2 seed ID 12-6, pCab-SU111",36%
same,#R number of resistant seedlings,"T2 seed ID 12-7, pCab-SU111",9
same,#S number of sensitive seedlings,"T2 seed ID 12-7, pCab-SU111",13
same,% R percent of seedlings which are resistant,"T2 seed ID 12-7, pCab-SU111",40%
same,#R number of resistant seedlings,"T2 seed ID 12-8, pCab-SU111",1
same,#S number of sensitive seedlings,"T2 seed ID 12-8, pCab-SU111",7
same,% R percent of seedlings which are resistant,"T2 seed ID 12-8, pCab-SU111",13%
same,#R number of resistant seedlings,"T2 seed ID 12-9, pCab-SU111",3
same,#S number of sensitive seedlings,"T2 seed ID 12-9, pCab-SU111",9
same,% R percent of seedlings which are resistant,"T2 seed ID 12-9, pCab-SU111",25%
same,#R number of resistant seedlings,"T2 seed ID 12-10, pCab-SU111",9
same,#S number of sensitive seedlings,"T2 seed ID 12-10, pCab-SU111",0
same,% R percent of seedlings which are resistant,"T2 seed ID 12-10, pCab-SU111",100%
same,#R number of resistant seedlings,"T2 seed ID 12-11, pCab-SU111",4
same,#S number of sensitive seedlings,"T2 seed ID 12-11, pCab-SU111",0
same,% R percent of seedlings which are resistant,"T2 seed ID 12-11, pCab-SU111",100%
same,#R number of resistant seedlings,"T3 seed ID 12-1-1, pCab-SU111",0
same,#S number of sensitive seedlings,"T3 seed ID 12-1-1, pCab-SU111",196
same,% R percent of seedlings which are resistant,"T3 seed ID 12-1-1, pCab-SU111",0%
same,#R number of resistant seedlings,"T3 seed ID 12-1-2, pCab-SU111",0
same,#S number of sensitive seedlings,"T3 seed ID 12-1-2, pCab-SU111",191
same,% R percent of seedlings which are resistant,"T3 seed ID 12-1-2, pCab-SU111",0%
same,#R number of resistant seedlings,"T3 seed ID 12-1-3, pCab-SU111",42
same,#S number of sensitive seedlings,"T3 seed ID 12-1-3, pCab-SU111",90
same,% R percent of seedlings which are resistant,"T3 seed ID 12-1-3, pCab-SU111",32%
same,#R number of resistant seedlings,"T3 seed ID 12-1-4, pCab-SU111",80
same,#S number of sensitive seedlings,"T3 seed ID 12-1-4, pCab-SU111",129
same,% R percent of seedlings which are resistant,"T3 seed ID 12-1-4, pCab-SU111",37%
same,#R number of resistant seedlings,"T3 seed ID 12-1-5, pCab-SU111",99
same,#S number of sensitive seedlings,"T3 seed ID 12-1-5, pCab-SU111",177
same,% R percent of seedlings which are resistant,"T3 seed ID 12-1-5, pCab-SU111",36%
same,#R number of resistant seedlings,"T3 seed ID 12-1-6, pCab-SU111",83
same,#S number of sensitive seedlings,"T3 seed ID 12-1-6, pCab-SU111",152
same,% R percent of seedlings which are resistant,"T3 seed ID 12-1-6, pCab-SU111",35%
same,#R number of resistant seedlings,WT,58
same,#S number of sensitive seedlings,WT,5
same,% R percent of seedlings which are resistant,WT,92%
same,Visual Inhibition Ratings of Seedlings,"Wild type, 1 ppb 10015",1
same,Visual Inhibition Ratings of Seedlings,"Wild type, 2 ppb 10015",1
same,Visual Inhibition Ratings of Seedlings,"Wild type, 5 ppb 10015",1
same,Visual Inhibition Ratings of Seedlings,"Wild type, 10 ppb 10015",1
same,Visual Inhibition Ratings of Seedlings,"Wild type, 20 ppb 10015",1
